We go through 22 molecules from US11584714B2 (priority 2018, dated 2023).

What all share (format): biochemical
One experiment addresses MASP-2 (CCP1-CCP2-SP) (Homo sapiens (Human), UniProt O00187). Put plainly: biochemical. The following applies: for MASP-2 vs. thrombin selectivity: selectivity for MASP-2 inhibition versus thrombin.
In the next experiment the target is mMASP-2 (Mus musculus (Mouse), UniProt Q91WP0). Put plainly: Enzymatic inhibition of mMASP-2.
A further experiment addresses human α-thrombin (Homo sapiens (Human), UniProt P00734). Put plainly: Enzymatic assay for thrombin (Boc-VPR-AMC substrate).

Each structure is given as a SMILES string. Structures can show the parent of a compound that is named as a salt. Where two headings read alike, the source gives them in different places.

Sequence of mMASP-2 (Q91WP0 20-685): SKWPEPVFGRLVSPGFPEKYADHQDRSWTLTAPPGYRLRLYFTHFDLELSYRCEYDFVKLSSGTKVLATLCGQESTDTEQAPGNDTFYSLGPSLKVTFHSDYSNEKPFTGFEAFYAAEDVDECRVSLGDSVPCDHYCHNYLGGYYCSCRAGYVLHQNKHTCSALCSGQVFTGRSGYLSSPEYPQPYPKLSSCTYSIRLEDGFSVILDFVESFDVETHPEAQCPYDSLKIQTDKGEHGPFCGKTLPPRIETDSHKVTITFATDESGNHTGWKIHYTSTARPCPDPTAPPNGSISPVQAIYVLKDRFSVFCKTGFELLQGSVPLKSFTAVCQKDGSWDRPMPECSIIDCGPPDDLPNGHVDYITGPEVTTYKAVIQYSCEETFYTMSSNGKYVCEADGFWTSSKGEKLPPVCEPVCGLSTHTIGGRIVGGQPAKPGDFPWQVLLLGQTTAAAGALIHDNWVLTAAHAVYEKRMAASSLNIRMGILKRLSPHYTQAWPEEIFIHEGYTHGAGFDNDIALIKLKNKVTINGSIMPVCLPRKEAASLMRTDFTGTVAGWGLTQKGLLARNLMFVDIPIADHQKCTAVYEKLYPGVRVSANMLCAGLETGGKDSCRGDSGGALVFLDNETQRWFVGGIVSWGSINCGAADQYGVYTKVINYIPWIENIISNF
Sequence of MASP-2 (CCP1-CCP2-SP) (O00187 445-686): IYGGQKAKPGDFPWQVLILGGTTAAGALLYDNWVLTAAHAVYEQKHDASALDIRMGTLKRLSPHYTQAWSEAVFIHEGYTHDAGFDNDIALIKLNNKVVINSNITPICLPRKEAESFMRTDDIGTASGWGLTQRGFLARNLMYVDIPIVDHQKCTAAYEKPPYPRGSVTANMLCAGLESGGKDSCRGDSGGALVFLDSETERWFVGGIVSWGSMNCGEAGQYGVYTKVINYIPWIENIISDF

On to `C[C@H](NC(=O)[C@H]1C[C@H](c2ccccc2)CN1)C(=O)NCc1ccc(C(N)=O)nc1` [compound 1273, 5-(((S)-2-((2R,4R)-4-Phenylpyrrolidine-2-carboxamido)propanamido)methyl)picolinamide], for which the Ki – broadly, the dissociation constant of the complex between target and ligand, obtained from inhibition or displacement – on MASP-2 (CCP1-CCP2-SP) is 10 to 25 µM; on mMASP-2 (read-out: mMASP-2 Ki), 10000 to 25000 nM; on human α-thrombin (read-out: Thrombin Ki) it was above 25 µM.

On to `C[C@H](NC(=O)[C@H]1C[C@H](c2ccccc2)CN1)C(=O)NCc1cc(Cl)ccc1NS(C)(=O)=O` [compound 1274, (2R,4R)—N—((S)-1-((5-chloro-2-(methylsulfonamido)benzyl)amino)-1-oxopropan-2-yl)-4-phenylpyrrolidine-2-carboxamide], for which the results for the Ki on MASP-2 (CCP1-CCP2-SP), on mMASP-2 (read-out: mMASP-2 Ki) and on human α-thrombin (read-out: Thrombin Ki) were 2.5 to 10 µM, 10000 to 25000 nM and above 25 µM, respectively. On MASP-2 (CCP1-CCP2-SP), the “MASP-2 vs. thrombin selectivity” value is reported as “** (≥5.0 to <25-fold)”.

Consider `C[C@H](NC(=O)[C@H](N)CCc1ccccc1)C(=O)NCc1cnc(N)c(Cl)c1` [compound 1275, (R)-2-Amino-N—((S)-1-(((6-amino-5-chloropyridin-3-yl)methyl)amino)-1-oxopropan-2-yl)-4-phenylbutanamide], for which the Ki on MASP-2 (CCP1-CCP2-SP) is 0.5 to 2.5 µM; on mMASP-2 (read-out: mMASP-2 Ki) it was above 25000 nM; on human α-thrombin (read-out: Thrombin Ki), above 25 µM. The “MASP-2 vs. thrombin selectivity” value at MASP-2 (CCP1-CCP2-SP) is “*** (≥25 to <100-fold)”.

For the molecule `C[C@H](NC(=O)[C@H]1C[C@@H](c2cccc(C(F)(F)F)c2)CN1)C(=O)NCc1ccc(C(=N)N)cc1` [compound 1276, (2R,4S)—N—((S)-1-((4-Carbamimidoylbenzyl)amino)-1-oxopropan-2-yl)-4-(3-(trifluoromethyl)phenyl)pyrrolidine-2-carboxamide], the Ki at MASP-2 (CCP1-CCP2-SP) (read-out: MASP-2 Ki) is below 0.5 µM; at mMASP-2 (read-out: mMASP-2 Ki), below 500 nM; on human α-thrombin (Thrombin Ki (μM)), 0.5 to 2.5 µM. In addition, the “MASP-2 vs. thrombin selectivity” value at MASP-2 (CCP1-CCP2-SP) is “*** (≥25 to <100-fold)”.

With `C[C@H](NC(=O)[C@H]1C[C@@H](c2cccc(CN)c2)CN1)C(=O)NCc1ccc(C(=N)N)cc1` [compound 1277, (2R,4S)-4-(3-(Aminomethyl)phenyl)-N-((S)-1-((4-carbamimidoylbenzyl)amino)-1-oxopropan-2-yl)pyrrolidine-2-carboxamide], the Ki at MASP-2 (CCP1-CCP2-SP) (read-out: MASP-2 Ki) is below 0.5 µM; at mMASP-2 (read-out: mMASP-2 Ki), below 500 nM; at human α-thrombin (read-out: Thrombin Ki), below 0.5 µM. On MASP-2 (CCP1-CCP2-SP), the “MASP-2 vs. thrombin selectivity” value is recorded as “** (≥5.0 to <25-fold)”.

Turning to `C[C@H](NC(=O)[C@H]1C[C@@H](c2cccc(C#N)c2)CN1)C(=O)NCc1ccc(C(=N)N)cc1` [compound 1278, (2R,4S)—N—((S)-1-((4-Carbamimidoylbenzyl)amino)-1-oxopropan-2-yl)-4-(3-cyanophenyl)pyrrolidine-2-carboxamide], the Ki was below 0.5 µM on MASP-2 (CCP1-CCP2-SP) (read-out: MASP-2 Ki), below 500 nM on mMASP-2 (read-out: mMASP-2 Ki) and 2.5 to 10 µM on human α-thrombin (Thrombin Ki (μM)). Also, at MASP-2 (CCP1-CCP2-SP), the “MASP-2 vs. thrombin selectivity” value was “*** (≥25 to <100-fold)”.

Take `C[C@H](NC(=O)[C@H](N)CCc1ccccc1)C(=O)NCc1cc(Br)ccc1O` [compound 1279, (R)-2-amino-N—((S)-1-((5-bromo-2-hydroxybenzyl)amino)-1-oxopropan-2-yl)-4-phenylbutanamide]: the Ki on MASP-2 (CCP1-CCP2-SP) is 0.5 to 2.5 µM; on mMASP-2 (read-out: mMASP-2 Ki), above 25000 nM; at human α-thrombin (Thrombin Ki (μM)), 2.5 to 10 µM. At MASP-2 (CCP1-CCP2-SP), the “MASP-2 vs. thrombin selectivity” value is “** (≥5.0 to <25-fold)”.

`C[C@H](NC(=O)[C@H](N)CCc1ccccc1)C(=O)NCc1ccc(CN)nc1` [compound 1280, (R)-2-Amino-N—((S)-1-(((6-(aminomethyl)pyridin-3-yl)methyl)amino)-1-oxopropan-2-yl)-4-phenylbutanamide]: the values for the Ki at MASP-2 (CCP1-CCP2-SP), at mMASP-2 (read-out: mMASP-2 Ki) and at human α-thrombin (read-out: Thrombin Ki) were 2.5 to 10 µM, 10000 to 25000 nM and above 25 µM, respectively.

As for `C[C@H](NC(=O)[C@H]1C[C@H](c2ccccc2)CN1)C(=O)NCC1CCc2nc(N)sc2C1` (stereo partly drawn) [compound 1281, (2R,4R)—N-((2S)-1-(((2-Amino-4,5,6,7-tetrahydrobenzo[d]thiazol-6-yl)methyl)amino)-1-oxopropan-2-yl)-4-phenylpyrrolidine-2-carboxamide], the Ki was 2.5 to 10 µM on MASP-2 (CCP1-CCP2-SP), above 25000 nM on mMASP-2 (read-out: mMASP-2 Ki) and above 25 µM at human α-thrombin (read-out: Thrombin Ki).

Regarding `Cc1nc(N)ccc1CNC(=O)[C@H](C)NC(=O)[C@@H]1C[C@@H](Cc2ccccc2)CN1` [compound 1282, (2S,4R)—N—((S)-1-(((6-Amino-2-methylpyridin-3-yl)methyl)amino)-1-oxopropan-2-yl)-4-benzylpyrrolidine-2-carboxamide], the Ki at MASP-2 (CCP1-CCP2-SP) is 10 to 25 µM; on mMASP-2 (read-out: mMASP-2 Ki), above 25000 nM; on human α-thrombin (read-out: Thrombin Ki) it was above 25 µM.

`Cc1nc(N)ccc1CNC(=O)[C@H](C)NC(=O)[C@H]1C[C@@H](Cc2ccccc2)CN1` [compound 1283, (2R,4R)—N—((S)-1-(((6-Amino-2-methylpyridin-3-yl)methyl)amino)-1-oxopropan-2-yl)-4-benzylpyrrolidine-2-carboxamide]: the Ki is below 0.5 µM at MASP-2 (CCP1-CCP2-SP) (read-out: MASP-2 Ki), 500 to 2500 nM at mMASP-2 (read-out: mMASP-2 Ki) and 2.5 to 10 µM at human α-thrombin (Thrombin Ki (μM)). Besides, the “MASP-2 vs. thrombin selectivity” value at MASP-2 (CCP1-CCP2-SP) is reported as “*** (≥25 to <100-fold)”.

Turning to `C[C@H](NC(=O)[C@H]1C[C@@H](Cc2ccccc2)CN1)C(=O)NCc1ccc(C(=N)N)cc1` [compound 1284, (2R,4R)-4-Benzyl-N-((S)-1-((4-carbamimidoylbenzyl)amino)-1-oxopropan-2-yl)pyrrolidine-2-carboxamide], the Ki was below 0.5 µM on MASP-2 (CCP1-CCP2-SP) (read-out: MASP-2 Ki), below 500 nM on mMASP-2 (read-out: mMASP-2 Ki) and below 0.5 µM on human α-thrombin (read-out: Thrombin Ki). Also, the “MASP-2 vs. thrombin selectivity” value on MASP-2 (CCP1-CCP2-SP) is recorded as “* (≥1.0 to <5.0-fold)”.

For the molecule `C[C@H](NC(=O)[C@@H]1C[C@@H](Cc2ccccc2)CN1)C(=O)NCc1ccc(C(=N)N)cc1` [compound 1285, (2S,4R)-4-Benzyl-N-((S)-1-((4-carbamimidoylbenzyl)amino)-1-oxopropan-2-yl)pyrrolidine-2-carboxamide], the Ki lay within 0.5 to 2.5 µM at MASP-2 (CCP1-CCP2-SP), 500 to 2500 nM on mMASP-2 (read-out: mMASP-2 Ki) and 2.5 to 10 µM at human α-thrombin (Thrombin Ki (μM)). Further, on MASP-2 (CCP1-CCP2-SP), the “MASP-2 vs. thrombin selectivity” value is “** (≥5.0 to <25-fold)”.

For the molecule `C[C@H](NC(=O)c1nc(-c2ccccc2)cs1)C(=O)NCc1ccc(C(=N)N)cc1` [compound 1286, (S)—N-(1-((4-Carbamimidoylbenzyl)amino)-1-oxopropan-2-yl)-4-phenylthiazole-2-carboxamide], the Ki at MASP-2 (CCP1-CCP2-SP) is 2.5 to 10 µM; at mMASP-2 (read-out: mMASP-2 Ki), below 500 nM; at human α-thrombin (Thrombin Ki (μM)), 0.5 to 2.5 µM. Further, the “MASP-2 vs. thrombin selectivity” value on MASP-2 (CCP1-CCP2-SP) is on record as “−− (<1.0-fold)”.

As to `C[C@H](NC(=O)[C@H](N)CCc1ccccc1)C(=O)NCc1cc(Cl)ccc1CO` [compound 1287, (R)-2-amino-N—((S)-1-((5-Chloro-2-(hydroxymethyl)benzyl)amino)-1-oxopropan-2-yl)-4-phenylbutanamide], the Ki is 10 to 25 µM at MASP-2 (CCP1-CCP2-SP), above 25000 nM at mMASP-2 (read-out: mMASP-2 Ki) and above 25 µM at human α-thrombin (read-out: Thrombin Ki).

Take `C[C@H](NC(=O)[C@H]1C[C@H](c2ccccc2)CN1)C(=O)NCc1ccc(C(=N)NC(=O)OCC(Cl)(Cl)Cl)cc1` [compound 1288, 2,2,2-Trichloroethyl (imino(4-(((S)-2-((2R,4R)-4-phenylpyrrolidine-2-carboxamido)propanamido)methyl)phenyl)methyl)carbamate]: the Ki on MASP-2 (CCP1-CCP2-SP) (MASP-2 Ki (μM)) was 2.5 to 10 µM; on mMASP-2, 2500 to 10000 nM; at human α-thrombin (read-out: Thrombin Ki), above 25 µM.

With `CC[C@H](NC(=O)[C@H](N)CCc1ccccc1)C(=O)NCc1ccc(C(=N)N)cc1` [compound 1289, (R)-2-Amino-N—((S)-1-((4-carbamimidoylbenzyl)amino)-1-oxobutan-2-yl)-4-phenylbutanamide], the Ki was below 0.5 µM at MASP-2 (CCP1-CCP2-SP) (read-out: MASP-2 Ki), below 500 nM at mMASP-2 (read-out: mMASP-2 Ki) and below 0.5 µM at human α-thrombin (read-out: Thrombin Ki). Further, the “MASP-2 vs. thrombin selectivity” value on MASP-2 (CCP1-CCP2-SP) is on record as “−− (<1.0-fold)”.

Turning to `CC[C@H](NC(=O)[C@H]1C[C@H](c2ccccc2)CN1)C(=O)NCc1ccc(C(=N)N)cc1` [compound 1290, (2R,4R)—N—((S)-1-((4-carbamimidoylbenzyl)amino)-1-oxobutan-2-yl)-4-phenylpyrrolidine-2-carboxamide], the Ki on MASP-2 (CCP1-CCP2-SP) (read-out: MASP-2 Ki) is below 0.5 µM; on mMASP-2 (read-out: mMASP-2 Ki), below 500 nM; at human α-thrombin (Thrombin Ki (μM)), 0.5 to 2.5 µM. Also, the “MASP-2 vs. thrombin selectivity” value on MASP-2 (CCP1-CCP2-SP) was “** (≥5.0 to <25-fold)”.

Turning to `CC(C)COC(=O)NC(=N)c1ccc(CNC(=O)[C@H](C)NC(=O)[C@H]2C[C@H](c3ccccc3)CN2)cc1` [compound 1293, Isobutyl (imino(4-(((S)-2-((2R,4R)-4-phenylpyrrolidine-2-carboxamido)propanamido)methyl)phenyl)methyl)carbamate], the figures for the Ki at MASP-2 (CCP1-CCP2-SP), on mMASP-2 (read-out: mMASP-2 Ki) and at human α-thrombin (read-out: Thrombin Ki) were 2.5 to 10 µM, 2500 to 10000 nM and above 25 µM, respectively. Further, the “MASP-2 vs. thrombin selectivity” value on MASP-2 (CCP1-CCP2-SP) is “* (≥1.0 to <5.0-fold)”.

On to `C[C@H](NC(=O)c1cc(-c2ccccc2)n[nH]1)C(=O)NCc1ccc(C(=N)N)cc1` [compound 1295, (S)—N-(1-((4-Carbamimidoylbenzyl)amino)-1-oxopropan-2-yl)-3-phenyl-1H-pyrazole-5-carboxamide], for which the Ki was below 0.5 µM on MASP-2 (CCP1-CCP2-SP) (read-out: MASP-2 Ki), below 500 nM at mMASP-2 (read-out: mMASP-2 Ki) and 2.5 to 10 µM at human α-thrombin (Thrombin Ki (μM)). Also, the “MASP-2 vs. thrombin selectivity” value at MASP-2 (CCP1-CCP2-SP) is “*** (≥25 to <100-fold)”.

On to `C[C@H](NC(=O)[C@H](N)CCc1ccccc1)C(=O)NCc1ccnc(N)c1` [compound 1296, (R)-2-Amino-N—((S)-1-(((2-aminopyridin-4-yl)methyl)amino)-1-oxopropan-2-yl)-4-phenylbutanamide Dihydrochloride], for which the results for the Ki on MASP-2 (CCP1-CCP2-SP), at mMASP-2 (read-out: mMASP-2 Ki) and on human α-thrombin (read-out: Thrombin Ki) were 2.5 to 10 µM, above 25000 nM and above 25 µM, respectively. At MASP-2 (CCP1-CCP2-SP), the “MASP-2 vs. thrombin selectivity” value was “** (≥5.0 to <25-fold)”.

With `Cc1cc(Cl)cc(CNC(=O)[C@H](C)NC(=O)[C@H]2C[C@H](c3ccccc3)CN2)c1O` [compound 1298, (2R,4R)—N—((S)-1-((5-chloro-2-hydroxy-3-methylbenzyl)amino)-1-oxopropan-2-yl)-4-phenylpyrrolidine-2-carboxamide Hydrochloride], the Ki on MASP-2 (CCP1-CCP2-SP) (read-out: MASP-2 Ki) is below 0.5 µM; on mMASP-2 (read-out: mMASP-2 Ki), 2500 to 10000 nM; on human α-thrombin (read-out: Thrombin Ki), above 25 µM.
